Source: patent US6844353B2, “Fungicidal properties of sampangine and its analogs to agriculturally important fungal plant pathogens” (The United States of America as represented by the …, priority 2003, dated 2005)
Where two headings read alike, the source gives them in different places.

Experiments:
C. acutatum = assay: 96-well microtiter plate assay, fungal growth inhibition; type: cell-based, Colletotrichum acutatum; conditions: Colletotrichum acutatum, C. acutatum, read-out: Percent inhibition−Percent Stimulation±SEM
C. gloeosporioides = assay: as above; type: cell-based, Colletotrichum gloeosporioides; conditions: Colletotrichum gloeosporioides, C. gloeosporioides, read-out: Percent inhibition−Percent Stimulation±SEM
B. cinerea = assay: as above; type: cell-based, Botrytis cinerea; conditions: Botrytis cinerea, B. cinerea, read-out: Percent inhibition−Percent Stimulation±SEM
[1] = system: C. fragariae isolate CF-75; assay: Detached strawberry leaf assay; type: in vivo, Colletotrichum fragariae; conditions: detached strawberry leaves (cultivar Chandler), five days after application
Text: Strawberry plants of the cultivar Chandler were maintained in a warm greenhouse under conditions suitable for optimum vegetative growth. The youngest fully expanded leaf with the entire petiole from each plant was collected. The petiole of each leaf was inserted into a small test tube (10×4 mm) and filled with sterile distilled water. The left leaflet of each leaf was inoculated with C. fragariae isolate CF-75 (1.5×10^6 conidia/ml) using a hand pump sprayer. The inoculated leaves were placed in a dew chamber and incubated overnight at 30° C. and 100% relative humidity, removed from the dew chamber and allowed to dry. The test compound was applied using a chromatography sprayer until the upper surface of each leaflet was coated. After allowing the leaves to air dry for 2 hours, the right leaflet of each leaf was inoculated with C. fragariae isolate CF-75. The leaves were incubated in the dew chamber at 30° C. and 100% relative humidity for 48 hours. The leaves were then removed from the dew chamber and held in a moist chamber for 3 days (total of five days since test compounds were applied). The number of lesions on each leaflet were then counted.

C. fragariae = assay: 96-well microtiter plate assay, fungal growth inhibition; type: cell-based, Colletotrichum fragariae; conditions: Colletotrichum fragariae, C. fragariae, read-out: Percent inhibition−Percent Stimulation±SEM
F. oxysporum = assay: as above; type: cell-based, Fusarium oxysporum; conditions: Fusarium oxysporum, F. oxysporum, read-out: Percent inhibition−Percent Stimulation±SEM
Summary of the method: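 Conidia (1.0×10^6 conidia/mL suspension) were challenged in broth with compounds at 0.3, 3.0 and 30.0 μM in duplicate, at 24±1° C with a 12 h photoperiod. Growth was read as absorbance at 620 nm at 46 and 72 h (120 h for Phomopsis species), with mean absorbance used to judge inhibition.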

## O=C1c2ccccc2-c2nccc3ccnc1c23 [Sampangine]
C. acutatum; 48 hrs
  inhibition at 0.3 µM: 13.6 ± 5.8%
  inhibition at 3 µM: 96.8 ± 0.5%
  inhibition at 30 µM: 100 ± 0.6%
C. acutatum; 72 hrs
  inhibition at 0.3 µM: 6 ± 5.1%
  inhibition at 3 µM: -6.2 ± 3.8%
  inhibition at 30 µM: 100 ± 0.2%
C. gloeosporioides; 48 hrs
  inhibition at 0.3 µM: 63.8 ± 8.6%
  inhibition at 3 µM: 98.3 ± 0.6%
  inhibition at 30 µM: 99.2 ± 0.8%
C. gloeosporioides; 72 hrs
  inhibition at 0.3 µM: 32.9 ± 8.3%
  inhibition at 3 µM: 98.8 ± 0.4%
  inhibition at 30 µM: 99.7 ± 0.4%
B. cinerea; 48 hrs
  inhibition at 0.3 µM: 27.2 ± 18.6%
  inhibition at 3 µM: 29.7 ± 24.8%
  inhibition at 30 µM: 36.9 ± 26.7%
B. cinerea; 72 hrs
  inhibition at 0.3 µM: 37 ± 21.8%
  inhibition at 3 µM: 40.1 ± 20.6%
  inhibition at 30 µM: 47.5 ± 27.1%
[1]; Concentration 625 (unit not given)
  Disease severity scores (# disease lesions): 8.31
[1]; Concentration 1250 (unit not given)
  Disease severity scores (# disease lesions): 1.26
[1]; Concentration 2500 (unit not given)
  Disease severity scores (# disease lesions): 0.80
C. fragariae; 48 hrs
  inhibition at 0.3 µM: 55.7 ± 4.5%
  inhibition at 3 µM: 96.9 ± 0.8%
  inhibition at 30 µM: 99.6 ± 0.9%
C. fragariae; 72 hrs
  inhibition at 0.3 µM: 32.6 ± 5%
  inhibition at 3 µM: 96.8 ± 0.4%
  inhibition at 30 µM: 100 ± 0.4%
F. oxysporum; 48 hrs
  inhibition at 0.3 µM: 14.7 ± 4.4%
  inhibition at 3 µM: 86.6 ± 2.8%
  inhibition at 30 µM: 100 ± 0.4%
F. oxysporum; 72 hrs
  inhibition at 0.3 µM: 4.9 ± 2.3%
  inhibition at 3 µM: 42.9 ± 3.1%
  inhibition at 30 µM: 100 ± 0.4%
